Reference: ChEMBL document CHEMBL6115002, “Discovery of novel sitolactone derivative leading to PANoptosis and differentiation of acute myeloid leukemia cells” (Eur J Med Chem, 2025)
Active and inactive are the calls of the source. The calls are words filed in the database; no cut-off is given here.

Assays:
[1] = Antiproliferative activity against mouse WEHI-3 cells assessed as inhibition cell proliferation incubated for 72 hrs by MTT assay; format: functional, cell-based; conditions: WEHI-3, 72 h
Kasumi 1 = experiment: Antiproliferative activity against human Kasumi 1 cells assessed as inhibition cell proliferation incubated for 72 hrs by MTT assay; format: functional, cell-based; conditions: Kasumi 1, 72 h
MV4-11 = experiment: Antiproliferative activity against human MV4-11 cells assessed as inhibition cell proliferation incubated for 72 hrs by MTT assay; format: functional, cell-based; conditions: MV4-11, 72 h
[2] = Permeability of compound in human Caco-2 cells; format: ADME, cell-based
HCT-116 = experiment: Inhibition of tumor sphere formation in human HCT-116 cells at 1.25 uM incubated for 24 hrs; format: functional, cell-based

Structure (SMILES)	IC50 [1]	IC50 (Kasumi 1)	IC50 (MV4-11)	permeability [2]	inhibition (HCT-116)
C=C1C[C@@H]2[C@@H](CC[C@]3(C)[C@@H](O[Si](C)(C)CCCCl)CC[C@@H]23)OC1=O	> 20 µM	> 20 µM	> 20 µM		
C=C1C[C@@H]2[C@@H](CC[C@]3(C)[C@@H](OS(=O)(=O)c4ccc(OC)cc4)CC[C@@H]23)OC1=O	9.29 µM	8.36 µM	14.6 µM		
C=C1C[C@@H]2[C@@H](CC[C@]3(C)[C@@H](OC(=O)c4ccc(C(F)(F)F)cn4)CC[C@@H]23)OC1=O	8.21 µM	15.3 µM	14.2 µM		
C=C[Si](C)(C)O[C@H]1CC[C@H]2[C@@H]3CC(=C)C(=O)O[C@@H]3CC[C@]12C	> 20 µM	> 20 µM	> 20 µM		
C=C1C[C@@H]2[C@@H](CC[C@]3(C)[C@@H](O[Si](C)(C)CCCCCCCCCCCCCCCCCC)CC[C@@H]23)OC1=O	6.25 µM	5.93 µM	8.89 µM		
C=C1C[C@@H]2[C@@H](CC[C@]3(C)[C@@H](OC(=O)c4ccc(CC)cc4)CC[C@@H]23)OC1=O	6.73 µM	10.3 µM	16.4 µM		
C=C1C[C@@H]2[C@@H](CC[C@]3(C)[C@@H](OC=O)CC[C@@H]23)OC1=O	13.7 µM	16.4 µM	> 20 µM		
C=C1C[C@@H]2[C@@H](CC[C@]3(C)[C@@H](OC(=O)c4ccc(C(F)(F)F)cc4)CC[C@@H]23)OC1=O	10.2 µM	9.97 µM	16.6 µM		
C=C1C[C@@H]2[C@@H](CC[C@]3(C)[C@@H](OS(=O)(=O)CCCCCCC)CC[C@@H]23)OC1=O	> 20 µM	> 20 µM	> 20 µM		
C#CCCCC(=O)O[C@H]1CC[C@H]2[C@@H]3CC(=C)C(=O)O[C@@H]3CC[C@]12C	> 20 µM	> 20 µM	> 20 µM		
C=C1C[C@@H]2[C@@H](CC[C@]3(C)[C@@H](OC(=O)c4ccccn4)CC[C@@H]23)OC1=O	8.85 µM	13.7 µM	16.6 µM		
C=C1C[C@@H]2[C@@H](CC[C@]3(C)[C@@H](OC(c4ccccc4)c4ccccc4)CC[C@@H]23)OC1=O	3.58 µM	2.89 µM	4.66 µM		
C=C1C[C@@H]2[C@@H](CC[C@]3(C)[C@@H](O[Si](C)(C)C4CCCCC4)CC[C@@H]23)OC1=O	7.96 µM	9.25 µM	10.4 µM		
C=C1C[C@@H]2[C@@H](CC[C@]3(C)[C@@H](OC(=O)c4ccc(OC)cc4)CC[C@@H]23)OC1=O	9.43 µM	15.4 µM	> 20 µM		
C=C1C[C@@H]2[C@@H](CC[C@]3(C)[C@@H](OC(=O)c4ccc(-c5ccccc5)cc4)CC[C@@H]23)OC1=O	14.3 µM	18.1 µM	20 µM		
C=C1C[C@@H]2[C@@H](CC[C@]3(C)[C@@H](O[Si](c4ccccc4)(c4ccccc4)C(C)(C)C)CC[C@@H]23)OC1=O	1.37 µM	1.51 µM	3.89 µM		
C=C1C[C@@H]2[C@@H](CC[C@]3(C)[C@@H](O[Si](c4ccccc4)(c4ccccc4)c4ccccc4)CC[C@@H]23)OC1=O	4.61 µM	5.86 µM	5.32 µM		
C=C1C[C@@H]2[C@@H](CC[C@]3(C)[C@@H](O)CC[C@@H]23)OC1=O	12.6 µM	> 20 µM	> 20 µM		
C=C1C[C@@H]2[C@@H](CC[C@]3(C)[C@@H](OS(=O)(=O)c4c(C)noc4C)CC[C@@H]23)OC1=O	13.3 µM	14.3 µM	15.9 µM		
C=C1C[C@@H]2[C@@H](CC[C@]3(C)[C@@H](OC(=O)C4CCCC4)CC[C@@H]23)OC1=O	15.3 µM	> 20 µM	> 20 µM		
C=C1C[C@@H]2[C@@H](CC[C@]3(C)[C@@H](OC(C)(C)C)CC[C@@H]23)OC1=O	7.17 µM	8.98 µM	11.7 µM		
C=C1C[C@@H]2[C@@H](CC[C@]3(C)[C@@H](OS(=O)(=O)c4ccc(C)cc4)CC[C@@H]23)OC1=O	9.28 µM	8.25 µM	9.46 µM		
C=C1C[C@@H]2[C@@H](CC[C@]3(C)[C@@H](O[Si](CC)(CC)CC)CC[C@@H]23)OC1=O	2.14 µM	2.97 µM	4.53 µM		

Structure (SMILES)	IC50 [1]	IC50 (Kasumi 1)	IC50 (MV4-11)	permeability [2]	inhibition (HCT-116)
C=C1C[C@@H]2[C@@H](CC[C@]3(C)[C@@H](OC(c4ccccc4)(c4ccccc4)c4ccccc4)CC[C@@H]23)OC1=O	1.03 µM	1.85 µM	2.68 µM	Permeable	inactive
C=C1C[C@@H]2[C@@H](CC[C@]3(C)[C@@H](OS(=O)(=O)c4ccc(C#N)cc4)CC[C@@H]23)OC1=O	7.62 µM	8.92 µM	9.13 µM		
C=C1C[C@@H]2[C@@H](CC[C@]3(C)[C@@H](O[Si](OCC)(OCC)OCC)CC[C@@H]23)OC1=O	> 20 µM	> 20 µM	> 20 µM		
C=C1C[C@@H]2[C@@H](CC[C@]3(C)[C@@H](O[Si](C)(C)C)CC[C@@H]23)OC1=O	14.2 µM	16.3 µM	> 20 µM		
C=C1C[C@@H]2[C@@H](CC[C@]3(C)[C@@H](OS(=O)(=O)c4cccs4)CC[C@@H]23)OC1=O	8.25 µM	9.32 µM	8.71 µM		
C=C1C[C@@H]2[C@@H](CC[C@]3(C)[C@@H](O[Si](C)(C)C(C)(C)C)CC[C@@H]23)OC1=O	2.36 µM	3.72 µM	8.36 µM		
C=C1C[C@@H]2[C@@H](CC[C@]3(C)[C@@H](O[Si](C)(C)C(C)C)CC[C@@H]23)OC1=O	> 20 µM	> 20 µM	> 20 µM		
C=C1C[C@@H]2[C@@H](CC[C@]3(C)[C@@H](OC(=O)C4CC4)CC[C@@H]23)OC1=O	> 20 µM	> 20 µM	> 20 µM		
C=C1C[C@@H]2[C@@H](CC[C@]3(C)[C@@H](OS(=O)(=O)CCN4C(=O)c5ccccc5C4=O)CC[C@@H]23)OC1=O	9.17 µM	7.82 µM	15.4 µM		
C=C1C[C@@H]2[C@@H](CC[C@]3(C)[C@@H](OC(=O)c4ccccc4)CC[C@@H]23)OC1=O	10.3 µM	18.8 µM	16 µM		
C=C1C[C@@H]2[C@@H](CC[C@]3(C)[C@@H](OS(=O)(=O)c4cccnc4)CC[C@@H]23)OC1=O	13.3 µM	10.9 µM	> 20 µM		
C=C[Si](C)(O[C@H]1CC[C@H]2[C@@H]3CC(=C)C(=O)O[C@@H]3CC[C@]12C)c1ccccc1 (some centres undefined)	15.4 µM	16.3 µM	> 20 µM		
C=C1C[C@@H]2[C@@H](CC[C@]3(C)[C@@H](OS(=O)(=O)Cc4ccccc4)CC[C@@H]23)OC1=O	18.6 µM	15.3 µM	> 20 µM		
C=C1C[C@@H]2[C@@H](CC[C@]3(C)[C@@H](OC(c4ccccc4)(c4ccc(OC)cc4)c4ccc(OC)cc4)CC[C@@H]23)OC1=O	0.94 µM	1.46 µM	3.04 µM	Permeable	inactive
C=C1C[C@@H]2[C@@H](CC[C@]3(C)[C@@H](OS(=O)(=O)CCC)CC[C@@H]23)OC1=O	> 20 µM	> 20 µM	> 20 µM		
C=C1C[C@@H]2[C@@H](CC[C@]3(C)[C@@H](O[Si](OC)(OC)OC)CC[C@@H]23)OC1=O	> 20 µM	> 20 µM	> 20 µM		
C[C@]12CC[C@H]3OC(=O)CC[C@H]3[C@@H]1CCC2=O	> 100 µM	> 100 µM	> 100 µM		
C=C1C[C@@H]2[C@@H](CC[C@]3(C)[C@@H](O[Si](CCC)(CCC)CCC)CC[C@@H]23)OC1=O	1.46 µM	1.29 µM	2.17 µM		
C=C1C[C@@H]2[C@@H](CC[C@]3(C)[C@@H](OC(=O)c4ccc(F)cc4)CC[C@@H]23)OC1=O	6.27 µM	10.4 µM	13.4 µM		
C=C1C[C@@H]2[C@@H](CC[C@]3(C)[C@@H](OS(=O)(=O)c4ccsc4C(=O)OC)CC[C@@H]23)OC1=O	18 µM	> 20 µM	> 20 µM		
CC(C)[Si](O[C@H]1CC[C@H]2[C@@H]3CCC(=O)O[C@@H]3CC[C@]12C)(C(C)C)C(C)C	> 20 µM	> 20 µM	> 20 µM		
C=C1C[C@@H]2[C@@H](CC[C@]3(C)[C@@H](OS(=O)(=O)C[C@]45CC[C@](C)(C(=O)C4)C5(C)C)CC[C@@H]23)OC1=O	8.29 µM	9.8 µM	12.3 µM		
